Experimental data: PubChem BioAssay AID1996
≈ marks a conversion by molar mass, not a printed value.

Settings: buffer; pH 7.4; 200.0 µM
For `CCC(=O)OCCn1c(=O)c2ccccc2c2ccccc2c1=O`, the solubility kinetic was > 48.5 µg/mL.
`COc1ccccc1-n1cnc2sc(C)c(C)c2c1=O` showed a solubility kinetic of 15.1 µg/mL (≈ 52.7 µM).
`O=S(=O)(c1ccc(Cl)cc1)N1CCCC(C(F)(F)F)C1` (stereo not given) gave a solubility kinetic of 1 µg/mL (≈ 3.05 µM).
Work on `CCn1cc(C2=NC(CCSC)CO2)c2ccccc21` (stereo not given) yielded a solubility kinetic of 34 µg/mL (≈ 118 µM).
For `Cc1nc2ccc(NC(=O)C3CCCCC3)cc2s1`, the solubility kinetic was 13.2 µg/mL (≈ 48.1 µM).
In the case of `Cc1cc(Cl)cc(C)c1OCCn1ccnc1.Cl`, the solubility kinetic is reported as > 43.1 µg/mL.
With `O=c1c2ccccc2[nH]c(=S)n1CCN1CCCCC1` the solubility kinetic was > 43.4 µg/mL.
`O=C1C(Nc2ccccc2)=C2CCCC=C2N1c1ccccc1` showed a solubility kinetic of 1.8 µg/mL (≈ 5.95 µM).
In the case of `Cc1cccc(OCCc2c(C)[nH]c(=S)[nH]c2=O)c1`, the solubility kinetic is reported as 3.2 µg/mL (≈ 11.6 µM).
For `Cc1ccc(C2=Nc3ccccc3N=C(C(Cl)Cl)C2)cc1`, the solubility kinetic was 3.1 µg/mL (≈ 9.77 µM).
With `CCC(CC)c1nc2ccccc2c(=O)[nH]1` the solubility kinetic was > 32.4 µg/mL.
In the case of `COc1ccc(NC(=O)c2cccnc2N2CCOCC2)cc1`, the solubility kinetic is reported as > 47 µg/mL.
With `N#Cc1ccc(NC(=S)NCCN2CCOCC2)cc1` the solubility kinetic was > 43.6 µg/mL.
`Cc1cc(C)cc(C(=O)NCC(=O)OCC(=O)NC2CCCc3ccccc32)c1` (stereo not given) gave a solubility kinetic of 8.4 µg/mL (≈ 21.3 µM).
`O=[N+]([O-])c1ccc(N2CCN(c3ccc(F)cc3)CC2)cn1` showed a solubility kinetic of 3.5 µg/mL (≈ 11.6 µM).
With `O=C(COC(=O)Cc1ccc(F)cc1)NC1CCCCC1` the solubility kinetic was > 44 µg/mL.
With `Cc1cccc(NC(=O)NC2CCCCCCC2)c1C` the solubility kinetic was 0.6 µg/mL (≈ 2.19 µM).
`CCNc1nc(NCC)nc(NS(=O)(=O)c2ccc(N)cc2)n1` gave a solubility kinetic of 36.9 µg/mL (≈ 109 µM).
With `NC(=O)C1CCN(CC(O)COCc2ccccc2Cl)CC1` (stereo not given) the solubility kinetic was > 49 µg/mL.
Compound `Fc1cccc(NC(=S)N2CCc3ccccc32)c1` has a solubility kinetic of 6.3 µg/mL (≈ 23.1 µM).
For `CCOC(=O)c1cc2c(ccn2C)n1Cc1ccc(Cl)cc1`, the solubility kinetic was 1.3 µg/mL (≈ 4.1 µM).
For `COc1ccc(-c2csc(-c3[nH]cnc3N)n2)cc1`, the solubility kinetic was 18.1 µg/mL (≈ 66.5 µM).
`CC1(C)CC(c2nc(-c3ccc([N+](=O)[O-])cc3)cs2)CCO1` (stereo not given) showed a solubility kinetic of 19.3 µg/mL (≈ 60.6 µM).
For `CCOc1ccc(-n2ccc(=O)c(C(=O)O)n2)cc1`, the solubility kinetic was > 39 µg/mL.
With `Cc1ccc(-c2csc(-c3cc(C)on3)n2)cc1` the solubility kinetic was < 0.3 µg/mL.
For `CNc1nc(N)c([N+](=O)[O-])c(Nc2ccccc2OC)n1`, the solubility kinetic was 0.7 µg/mL (≈ 2.41 µM).
In the case of `c1ccc2ncccc2c1`, the solubility kinetic is reported as 12.4 µg/mL (≈ 96 µM).
With `CCc1ccccc1NC(=O)CCS(=O)(=O)c1ccc(C)cc1` the solubility kinetic was > 49.7 µg/mL.
`CC(C)(C)OC(=O)N1CCCN(C(=O)Nc2ccc(C(F)(F)F)cc2)CC1` showed a solubility kinetic of 53.8 µg/mL (≈ 139 µM).
Work on `Cc1nc(N2CCN(c3ccccc3)CC2)[nH]c(=O)c1C` yielded a solubility kinetic of 39.5 µg/mL (≈ 139 µM).
For `Cc1nc2sccn2c(=O)c1CCN1CCC(=C(c2ccc(F)cc2)c2ccc(F)cc2)CC1`, the solubility kinetic was 12.2 µg/mL (≈ 25.5 µM).
In the case of `NC(=O)Cn1cnc2nc3n(c2c1=O)CCC3`, the solubility kinetic is reported as > 35 µg/mL.
In the case of `CC1CC(C)CN(C(=O)c2ccc3c(c2)OCCO3)C1` (stereo not given), the solubility kinetic is reported as > 41.3 µg/mL.
`O=C(Nc1ccc(F)cc1)C1CC2CCC1C2` (stereo not given) showed a solubility kinetic of 25.3 µg/mL (≈ 108 µM).
Work on `Cc1ccc2cc(/C=C/C(=O)c3ccco3)c(Cl)nc2c1` yielded a solubility kinetic of 3.2 µg/mL (≈ 10.7 µM).
For `Cc1noc(C)c1-c1nc(CS(=O)(=O)c2ccccc2)no1`, the solubility kinetic was 8 µg/mL (≈ 25.1 µM).
Compound `Cc1ccc(CCC(=O)Nc2cc(Cl)ccc2Cl)o1` has a solubility kinetic of 1.9 µg/mL (≈ 6.37 µM).
For `Cc1sc2nc(SCC(=O)O)[nH]c(=O)c2c1C`, the solubility kinetic was > 40.5 µg/mL.
In the case of `CC1CCN(C(=O)Cn2cc(C(F)(F)F)ccc2=O)c2ccccc2S1` (stereo not given), the solubility kinetic is reported as > 57.4 µg/mL.
`CCOC(=O)c1cccc(NC(=O)c2ccccc2C)c1` showed a solubility kinetic of 33.1 µg/mL (≈ 117 µM).
With `COC(=O)c1ccc(NC(=O)C(=O)c2c[nH]c3ccccc23)cc1` the solubility kinetic was < 0.3 µg/mL.
With `CCn1ccc(C(=O)NCCCN2CCCC2=O)n1` the solubility kinetic was > 39.6 µg/mL.
In the case of `CCN1C(C(=O)Nc2cc(C)on2)=C(O)c2ccccc2S1(=O)=O`, the solubility kinetic is reported as > 52.4 µg/mL.
For `COCCNC(=S)N1CCCC(CO)C1` (stereo not given), the solubility kinetic was > 34.9 µg/mL.
In the case of `Cc1cccc2sc(NS(=O)(=O)c3ccccc3)nc12`, the solubility kinetic is reported as > 45.7 µg/mL.
In the case of `O=C(NCCc1ccc(C(F)(F)F)cc1)c1ccc(Cl)nc1`, the solubility kinetic is reported as 6.6 µg/mL (≈ 20.1 µM).
In the case of `CC(C)(C)n1cnc2cc(NC(=O)c3ccccc3)ccc21`, the solubility kinetic is reported as > 44 µg/mL.
Work on `CCc1ccc(N/C(=N/c2nc(C)cc(C)n2)NC(C)=O)cc1` yielded a solubility kinetic of 9.2 µg/mL (≈ 29.5 µM).
For `Cc1cc(-c2nc3ccccc3c(=O)o2)ccc1[N+](=O)[O-]`, the solubility kinetic was < 0.3 µg/mL.
In the case of `COC(=O)Cn1c(=O)oc2ccc(C)cc21`, the solubility kinetic is reported as > 33.2 µg/mL.
In the case of `O=C(Cn1cc(C(F)(F)F)ccc1=O)N1CCc2ccccc21`, the solubility kinetic is reported as 25.2 µg/mL (≈ 78.2 µM).
Compound `CCc1noc(C)c1C(=O)OCC(=O)c1ccc(OC)c(OC)c1` has a solubility kinetic of 46 µg/mL (≈ 138 µM).
With `COc1ccc(NC(=O)c2cc(-c3ccco3)on2)cc1OC` the solubility kinetic was 1.6 µg/mL (≈ 5.09 µM).
With `CCC1(C)Cc2c(sc3[nH]c(=S)[nH]c(=S)c23)CO1` (stereo not given) the solubility kinetic was 27.7 µg/mL (≈ 92.8 µM).
`O=C1Nc2ccccc2C1Cc1nc2ccccc2c(=O)n1-c1ccccc1` (stereo not given) showed a solubility kinetic of 55.1 µg/mL (≈ 150 µM).
With `O=C(NCC1CCCO1)c1ccccc1NS(=O)(=O)c1cccc([N+](=O)[O-])c1` (stereo not given) the solubility kinetic was > 60.8 µg/mL.
`Fc1ccc(Br)cc1SCCc1ccncc1` showed a solubility kinetic of 19.7 µg/mL (≈ 63.1 µM).
Compound `CN(Cc1cnccn1)Cc1nc(Cc2cccc(F)c2)no1` has a solubility kinetic of 46.3 µg/mL (≈ 148 µM).
With `C=CCn1c(CCNC(=O)c2ccco2)nc2ccccc21` the solubility kinetic was > 44.3 µg/mL.
For `COC(=O)c1ccccc1N=Cc1c(O)[nH]c(=S)[nH]c1=O`, the solubility kinetic was 6.1 µg/mL (≈ 20 µM).
